This is an account of results in patent US9733254B2, “Methods and apparatus for the in vitro modelling of drug administration” (THE UNIVERSITY OF BATH, priority 2012, dated 2017).

A short description of data set [1]: Release of excipient from the simulated injection site, HPLC of bath aliquots. Format: in vitro ADME. The following applies: excipient of generic insulin formulation, 0.5 ml injected; buffer in the cassette. On the procedure:
Shortly after injection, the protein solubility level decreased as indicated by the drop in % T. As the environment within the cassette equilibrated with the surrounding physiological conditions and the pH shifted towards 7.4, the protein re-solubilised as indicated by the increase in the % T level. The release profile of an excipient, m-cresol, from the injection site was determined from aliquots taken from the surrounding buffer bath at different time points by HPLC following the method specified in “Biodegradation characterisation and kinetics of m-cresol by Lysinibacillus cresolivorans” in Water SA (Online) vol. 37 no. 1 Pretoria January 2011.

Data set [2] can be described thus: Diffusion through the DERMAROLLER-modified 14000 MWCO dialysis membrane. Format: physicochemical. The following applies: modified membrane with cut off of 14000 MWCO. The text has this:
As an example, the membrane used in the system was Biodesing dialysis tubing with a molecular weight cut off diameter of 14000 Da. A 3 cm piece of the tubing was cut and the edges were removed to form two sheets of membrane. These sheets of membrane, whilst not separated from each other, were fully hydrated by soaking in deionised water and subsequently placed on Styrofoam covered with aluminium foil. The membrane permeability was then modified using a DERMAROLLER microneedle device. The membrane used can be transparent. […] In contrast, for rhodamine (MW~500 Da) the diffusion through the same membrane took place in one phase. The holes can be made with a DERMAROLLER microneedle device, or with any other method producing size and spatial distribution of holes suitable for the application. The diameter of the holes should be between 0.1 and a 10 micrometers and the spacing between any two adjacent holes between 0.1 and 10 mm.
As an example (FIG. 4), for a series of fluorescent small organic molecules (methylene blue and rhodamine) and fluorescently labelled dextrans with molecular weights between 4 kDa and 2 MDa, the rate constant of diffusion (k, [min^−1]) through the membranes after the modification followed the equation k=−0.01362 log10 (MW of the compound)+0.06065. (R^2=0.9996)

In the case of `Cc1cccc(O)c1` [m-cresol], in data set [1], the “time until all the excipient in the injected formulation has left the injection site” value is on record as “less than 50 minutes”.
Regarding rhodamine, the “mode of diffusion through the modified membrane” value in data set [2] was “one phase”.
Regarding `CN(C)c1ccc2nc3ccc(=[N+](C)C)cc-3sc2c1` [methylene blue], the “mode of diffusion through the modified membrane” value in data set [2] was “two phase diffusion”.
